# Measured values published in article PMC8764033, “Single-molecule analysis of specificity and multivalency in binding of short linear substrate motifs to the APC/C” (Nature Communications, 2022).
# Molecular target: T1, hCdc20^WD40 (Homo sapiens, UniProt Q12834)
# T1 construct: human Cdc20 (aa 162–484; pNH188); made in house; host or cells: Sf9 insect cells (baculovirus)
# Assay: Fluorescence anisotropy, 10 nM Cy5-labeled peptide, hCdc20^WD40
# Assay type: binding
# T1 sequence (Q12834 162-484): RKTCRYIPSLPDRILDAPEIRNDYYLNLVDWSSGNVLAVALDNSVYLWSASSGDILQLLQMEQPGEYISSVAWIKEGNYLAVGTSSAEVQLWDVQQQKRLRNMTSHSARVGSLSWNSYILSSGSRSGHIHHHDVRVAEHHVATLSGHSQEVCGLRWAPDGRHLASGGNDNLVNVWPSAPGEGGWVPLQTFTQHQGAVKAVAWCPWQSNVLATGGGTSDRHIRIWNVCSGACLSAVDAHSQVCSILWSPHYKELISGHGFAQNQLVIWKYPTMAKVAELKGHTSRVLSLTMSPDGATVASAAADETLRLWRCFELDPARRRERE
row,Substance,binding to human Cdc20 (in words)
1,"LIYVDKENGEPGTR-K(Cy5) [hSecurin KEN, Cy5-labeled KEN box peptide of human securin/Pttg1]",not Cdc20
2,"LPKATRKALGTVNRATEKSVK-K(Cy5) [AurKB D box, Cy5-labeled D box peptide of Aurora B kinase]",not Cdc20
